The text below walks through data of patent publication US6346622B1, “2-substituted 1,2-benzisothiazole derivatives and their use as serotonin antagonists (5-HT1A, 5HT1B and 5-HT1D)” (Abbott Laboratories, priority 1997, dated 2002).

Each structure is given as a SMILES string. Where a name gives a salt, the structure may show the parent alone.

Test system in one series: not given
Conditions: not given
As usually defined, the melting point is the temperature of the solid-liquid transition. On to `CC1(C)c2ccc([N+](=O)[O-])cc2S(=O)(=O)N1CCCN1CCN(c2cccc3ccccc23)CC1`, for which the melting point was found to be 203 °C. `CC1(C)c2ccccc2S(=O)(=O)N1CCCN1CCN(c2ccc(Cl)c3ccccc23)CC1` had a melting point of 151 °C. `COc1ccccc1N1CCN(CC(O)CN2C(C)(C)c3ccccc3S2(=O)=O)CC1` (stereo not drawn) displayed a melting point of 160 °C. The same measure, in the same setting: under `CCC1(CC)c2ccccc2S(=O)(=O)N1CCCN1CCN(c2cccc3ccccc23)CC1` stands 179 °C; under `CC1(C)c2ccccc2S(=O)(=O)N1CCCN1CCN(c2ccc3ccccc3n2)CC1`, 63 °C; under `C=C(CN1CCN(c2cccc3ccccc23)CC1)CN1C(C)(C)c2ccccc2S1(=O)=O`, 193 °C. In the case of `CC1(C)c2ccc(-n3cccc3)cc2S(=O)(=O)N1CCCN1CCN(c2cccc3ccccc23)CC1` (as salt: hydrochloride), the melting point is 269 °C. In the case of `Cc1cccc(N2CCN(CCN3C(C)(C)c4ccccc4S3(=O)=O)CC2)c1C` (as salt: hydrochloride), the melting point worked out at 291 °C.

Compound `CC1(C)c2ccccc2S(=O)(=O)N1CCN1CCN(c2cccc3c2CCC3)CC1` (as salt: hydrochloride) gave a melting point of 271 °C.

For the compound `CC1(C)c2ccccc2S(=O)(=O)N1CCCN1CCN(c2ncccn2)CC1` (as salt: hydrochloride), the melting point was 263 °C. With `COc1ccc(N2CCN(CCN3C(C)(C)c4ccccc4S3(=O)=O)CC2)cc1` (as salt: hydrochloride), the melting point was found to be 207 °C. Compound `CC1(C)c2ccccc2S(=O)(=O)N1CCCN1CCN(c2nc(-c3ccccc3)nc3ccccc23)CC1` (as salt: hydrochloride) showed a melting point of 269 °C. As to `Cc1ccc(C)c(N2CCN(CCCN3C(C)(C)c4ccccc4S3(=O)=O)CC2)c1` (as salt: hydrochloride), the melting point was determined as 218 °C. In the case of `CC1(C)c2ccccc2S(=O)(=O)N1CCN1CCN(c2ccccc2C#N)CC1` (as salt: hydrochloride), the melting point amounted to 228 °C.

With `CC1(C)c2ccccc2S(=O)(=O)N1CCN1CCN(c2ncnc3ccccc23)CC1` (as salt: hydrochloride), the melting point was 178 °C. Consider `CC1(C)c2ccccc2S(=O)(=O)N1CCN1CCN(c2cccc3ccccc23)CC1` (as salt: hydrochloride), for which the melting point was determined as 282 °C.

The test system of the next series is serotonin release in the dorsal raphe nucleus. The following applies: rat; together with paroxetine; cited from earlier work.
As to `COc1ccc(NC(=O)c2ccc(-c3ccc(-c4noc(C)n4)cc3C)cc2)cc1N1CCN(C)CC1` [GR 127 935], the “effect of paroxetine on serotonin release in the dorsal raphe nucleus” value is recorded as “potentiated”.

The next series relates to serotonin release in the cortex. The following applies: after systemic administration; cited from earlier work.
For `COc1ccc(NC(=O)c2ccc(-c3ccc(-c4noc(C)n4)cc3C)cc2)cc1N1CCN(C)CC1` [GR 127 935], the “serotonin release in the cortex” value is “reduces serotonin release”.
